Reference: publication PMC6154605, “Multi-Anti-Parasitic Activity of Arylidene Ketones and Thiazolidene Hydrazines against Trypanosoma cruzi and Leishmania spp” (Molecules : A Journal of Synthetic Chemistry and Natural …, 2017)
Marks after values point to notes of the source that are not given here.

Tests used:
[1] = system: T. cruzi epimastigotes, Tulahuen 2 strain (genotype TcVI); conditions: cited from earlier work
cruzipain = cruzipain (Trypanosoma cruzi, UniProt P25779); assay: Inhibition of T. cruzi cruzipain; assay type: biochemical; conditions: at 100 µM; read-out: Percentage of Inhibition Cruzipain
Experimental: Cruzipain was purified to homogeneity from epimastigotes of the Tulahuen 2 strain by ConA–Sepharose affinity chromatography, as previously described. Cruzipain (2.5 μM ε = 58,285 M^−1cm^−1) was incubated in 50 mM acetate buffer pH 5.5 with 5 mM DTT, and 100 μM inhibitor were added, shaking the solution for 15 min at 27 °C. The derivatives were added as solutions in DMSO, and the controls contained the same solvent concentration. The concentration of DMSO never exceeded 1% in the reaction medium. L-leucylam-ido(4-guanidino)butane (E-64) was used as a positive control of inhibition. Then, the fluorogenic substrate Z-Phe-Arg 7-amido-4-methylcoumarin hydrochloride (Z-Phe-Arg-AMC) at 10 μM was added, and the fluorescence was measured during 10 min at intervals of 3 s (excitation at 380 nm and emission at 460 nm) using a Varioskan Flash Spectrophotometer. From the slope of the negative control, we calculated the total (100%) enzyme activity, while the slopes obtained in the presence of the compounds yielded the percentage of remaining enzyme activity. The percentage of enzyme inhibition was determined as […]. The experiments were done in duplicate.

[2] = biological target: triosephosphate isomerase from T. cruzi (TcTIM) (Trypanosoma cruzi, UniProt P52270); assay: Inhibition of triosephosphate isomerase; conditions: read-out: Percentage of Inhibition TcTIM
triosephosphate isomerase from T. cruzi (TcTIM), sequence (P52270 whole entry): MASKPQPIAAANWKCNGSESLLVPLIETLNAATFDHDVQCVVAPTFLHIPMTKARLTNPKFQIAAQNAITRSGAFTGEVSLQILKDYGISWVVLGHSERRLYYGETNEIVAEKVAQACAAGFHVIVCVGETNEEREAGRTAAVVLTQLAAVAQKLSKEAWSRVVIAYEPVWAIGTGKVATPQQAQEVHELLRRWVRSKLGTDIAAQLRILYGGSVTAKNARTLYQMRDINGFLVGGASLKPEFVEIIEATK
Experimental: Expression and purification of proteins: TcTIM, LmTIM and HsTIM were expressed in Escherichia coli and purified as described in the literature [39]. […] Before use, extensive dialysis against 100 mM triethanolamine/10 mM EDTA (pH 7.4) was performed.
Enzymatic activity assays: Enzymatic activity was determined following the conversion of glyceraldehyde 3-phosphate into dihydroxyacetone phosphate. […] The reaction mixture (1 mL, pH 7.4) contained 100 mM triethanolamine, 10 mM EDTA, 0.2 mM NADH, 1 mM glyceraldehyde 3-phosphate and 0.9 units of α-glycerol phosphate dehydrogenase. The reaction was initiated by the addition of 5 ng/mL of the TcTIM.
The mixture also contained the compounds at the indicated concentrations. Compounds were dissolved in DMSO. After 2 h, 10 µL was withdrawn and added to a final volume of 100 µL of the reaction mixture for the activity assay. The inhibition assay was performed in a 96-well microplate Varioskan spectrophotometer. […] The experiments were performed in triplicate.

cruzipain, sequence (P25779 123-467): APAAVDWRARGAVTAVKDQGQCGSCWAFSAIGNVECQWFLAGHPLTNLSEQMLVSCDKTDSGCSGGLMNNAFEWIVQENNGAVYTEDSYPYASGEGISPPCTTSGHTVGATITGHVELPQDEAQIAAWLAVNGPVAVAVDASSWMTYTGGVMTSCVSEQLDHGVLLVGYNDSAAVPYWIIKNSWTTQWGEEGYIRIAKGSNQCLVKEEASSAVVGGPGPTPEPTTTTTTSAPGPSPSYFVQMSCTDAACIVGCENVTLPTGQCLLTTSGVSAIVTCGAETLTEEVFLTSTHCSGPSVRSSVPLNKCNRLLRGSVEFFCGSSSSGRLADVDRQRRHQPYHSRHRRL

## C=CCn1c(-c2ccc(Cl)cc2)cs\c1=N/N=C/C=C/c1ccco1 [GAT1033]
[1]; ratio IC50 mammalian cell / IC50 parasite (epimastigotes)
  SI J774.1/ T. cruzi: 37 ^a
[1]; read-out: IC50 ± SD Epimastigotes T. cruzi
  IC50: 1600 ± 500 nM
cruzipain
  inhibition at 100 µM: 0%
[2]
  inhibition at 100 µM: 0%
